Assay results reported in ChEMBL document CHEMBL1201862, “PubChem BioAssay data set” (2004).
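Protocol summary: plate cells (96-well), add compound at 5 concentrations, incubate 48 h, interpolate endpoints linearly. GI50 marks 50% less growth.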 Activity calls are given as the source filed them. No stated cut-off is given here; in the data, active = GI50 up to about 1.1 µM and inactive = higher.

Legend:
Experiment in all cases: NCI tumour cell line growth inhibition, 48 h
HCC 2998 = test system: HCC 2998
HCT-116 = test system: HCT-116
MOLT-4 = test system: MOLT-4
MDA-MB-231 = test system: MDA-MB-231
COLO 205 = test system: COLO 205
UACC-62 = test system: UACC-62
NCI/ADR-RES = test system: NCI/ADR-RES
RPMI-8226 = test system: RPMI-8226
SK-OV-3 = test system: SK-OV-3
Malme-3M = test system: Malme-3M
SNB-75 = test system: SNB-75
Hs-578T = test system: Hs-578T
TK-10 = test system: TK-10
OVCAR-4 = test system: OVCAR-4
NCI-H460 = test system: NCI-H460
SF-268 = test system: SF-268
A549 = test system: A549
SNB-19 = test system: SNB-19
SK-MEL-28 = test system: SK-MEL-28
A498 = test system: A498

Measured: GI50

CCOC(=O)NC(Nc1ccc(C(=O)OCC)cc1)(C(F)(F)F)C(F)(F)F
inactive: HCC 2998 > 100 µM | HCT-116 > 100 µM | MOLT-4 11.1 µM | MDA-MB-231 > 100 µM | COLO 205 > 100 µM | UACC-62 13.1 µM | NCI/ADR-RES > 100 µM | RPMI-8226 > 100 µM | SK-OV-3 > 100 µM | Malme-3M > 100 µM | SNB-75 > 100 µM | Hs-578T > 100 µM | TK-10 > 100 µM | OVCAR-4 > 100 µM | NCI-H460 66.8 µM | SF-268 > 100 µM | A549 50.9 µM | SNB-19 96.8 µM | SK-MEL-28 > 100 µM | A498 > 100 µM

N/C(COc1ccc(Cl)cc1)=N\NC(=O)c1ccncc1
inactive: HCC 2998 > 100 µM | HCT-116 > 100 µM | MOLT-4 > 100 µM | MDA-MB-231 > 100 µM | COLO 205 > 100 µM | UACC-62 > 100 µM | NCI/ADR-RES 49.9 µM | RPMI-8226 39.4 µM | SK-OV-3 > 100 µM | Malme-3M > 100 µM | SNB-75 30.3 µM | Hs-578T > 100 µM | TK-10 > 100 µM | OVCAR-4 > 100 µM | NCI-H460 63.5 µM | SF-268 > 100 µM | A549 > 100 µM | SNB-19 > 100 µM | SK-MEL-28 > 100 µM | A498 57.9 µM

CSc1nc(SC)c2c(C)c(Br)[nH]c2n1
inactive: HCC 2998 > 100 µM | HCT-116 > 100 µM | MOLT-4 > 100 µM | MDA-MB-231 > 100 µM | COLO 205 > 100 µM | UACC-62 > 100 µM | NCI/ADR-RES > 100 µM | RPMI-8226 > 100 µM | SK-OV-3 > 100 µM | Malme-3M > 100 µM | SNB-75 > 100 µM | Hs-578T > 100 µM | TK-10 > 100 µM | OVCAR-4 > 100 µM | NCI-H460 > 100 µM | SF-268 > 100 µM | A549 > 100 µM | SNB-19 > 100 µM | SK-MEL-28 > 100 µM | A498 > 100 µM

CCOC(=O)c1oc2ccc([N+](=O)[O-])c3c2c1CCC3
inactive: HCC 2998 > 87.9 µM | HCT-116 51.1 µM | MOLT-4 > 100 µM | MDA-MB-231 36.5 µM | COLO 205 > 85.1 µM | UACC-62 13.8 µM | NCI/ADR-RES 64.9 µM | RPMI-8226 > 100 µM | SK-OV-3 9.89 µM | Malme-3M > 63.4 µM | SNB-75 14 µM | Hs-578T 29.2 µM | TK-10 47.6 µM | OVCAR-4 > 100 µM | NCI-H460 > 100 µM | SF-268 27.2 µM | A549 > 100 µM | SNB-19 34.7 µM | SK-MEL-28 > 82.4 µM | A498 32.7 µM

Clc1ccc(-c2nn3c(CCCCCCCCc4nnc5sc(-c6ccc(Cl)cc6)nn45)nnc3s2)cc1
inactive: HCC 2998 48.3 µM | HCT-116 15.9 µM | MOLT-4 7.69 µM | MDA-MB-231 27 µM | COLO 205 26.6 µM | UACC-62 32.4 µM | NCI/ADR-RES 21 µM | RPMI-8226 10.3 µM | SK-OV-3 30.1 µM | Malme-3M 45.2 µM | SNB-75 19.9 µM | Hs-578T 27.2 µM | TK-10 23.4 µM | OVCAR-4 8.85 µM | NCI-H460 26.9 µM | SF-268 23.2 µM | A549 13.2 µM | SNB-19 20.6 µM | SK-MEL-28 23.6 µM | A498 24.8 µM
